From PMC12669040, “Tumour-specific STING agonist synthesis via a two-component prodrug system” (Nature Chemistry, 2025)
Where “and” joins values, the source holds several entries; their conditions need not be identical. Identical values can stand only once.

Key:
[1] = Colorimetric alkylation rate constant assay with thiol N1; type: physicochemical; settings: for remaining [A]: N1 from calibration curve (N1 in uM); for remaining [A] / remaining [B]: in µM
[2] = Colorimetric alkylation rate constant assay with TNB^2− as non-specific thiol; type: physicochemical; set-up: second-order: unit not given here; settings: for remaining [B]: in µM
[3] = Time 2891 sec, [B]0 = 250, Replicates 1-3
[4] = Time 3071 sec, [B]0 = 250, Replicates 1-3
[5] = Time 3252 sec, [B]0 = 250, Replicates 1-3
[6] = Time 3433 sec, [B]0 = 250, Replicates 1-3
[7] = Time 3613 sec, [B]0 = 250, Replicates 1-3

remaining [A] ([1]; Replicate 1, time 576 sec): 17.5091
remaining [B] ([1]; Replicate 1, time 576 sec, [B]0 = 250): 163.389
remaining [A] ([1]; Replicate 1, time 606 sec): 16.6256
remaining [B] ([1]; Replicate 1, time 606 sec, [B]0 = 250): 162.506
remaining [A] ([1]; Replicate 2, time 576 sec): 15.4999
remaining [B] ([1]; Replicate 2, time 576 sec, [B]0=250): 162.358
remaining [A] ([1]; Replicate 2, time 606 sec): 14.5929
remaining [B] ([1]; Replicate 2, time 606 sec, [B]0=250): 161.451
remaining [A] ([1]; Replicate 3, time 576 sec): 17.4849
remaining [B] ([1]; Replicate 3, time 576 sec, [B]0=250): 162.938
remaining [A] ([1]; Replicate 3, time 606 sec): 16.538
remaining [B] ([1]; Replicate 3, time 606 sec, [B]0=250): 161.991
remaining [B] ([1]; time 0 sec, [B]0 = 250, replicates 1-3): 219.942 and 218.28 and 218.112
remaining [B] ([1]; time 30 sec, [B]0 = 250, replicates 1-3): 211.555 and 211.839 and 210.232
remaining [B] ([1]; time 60 sec, [B]0 = 250, replicates 1-3): 204.386 and 206.139 and 202.834
remaining [B] ([1]; time 91 sec, [B]0 = 250, replicates 1-3): 199.029 and 200.952 and 197.251
remaining [B] ([1]; time 121 sec, [B]0 = 250, replicates 1-3): 194.402 and 196.363 and 192.97
remaining [B] ([1]; time 151 sec, [B]0 = 250, replicates 1-3): 190.452 and 192.373 and 188.804
remaining [B] ([1]; time 182 sec, [B]0 = 250, replicates 1-3): 186.908 and 188.84 and 185.431
remaining [B] ([1]; time 212 sec, [B]0 = 250, replicates 1-3): 183.932 and 185.762 and 182.511
remaining [B] ([1]; time 242 sec, [B]0 = 250, replicates 1-3): 181.254 and 182.541 and 179.734
remaining [B] ([1]; time 273 sec, [B]0 = 250, replicates 1-3): 178.711 and 180.147 and 177.239
remaining [B] ([1]; time 303 sec, [B]0 = 250, replicates 1-3): 176.384 and 177.582 and 175.227
remaining [B] ([1]; time 333 sec, [B]0 = 250, replicates 1-3): 174.382 and 175.53 and 173.129
remaining [B] ([1]; time 364 sec, [B]0 = 250, replicates 1-3): 172.461 and 173.364 and 171.287
remaining [B] ([1]; time 394 sec, [B]0 = 250, replicates 1-3): 170.756 and 171.54 and 169.7
remaining [B] ([1]; time 424 sec, [B]0 = 250, replicates 1-3): 169.187 and 169.802 and 168.141
remaining [B] ([1]; time 454 sec, [B]0 = 250, replicates 1-3): 167.699 and 168.519 and 166.865
remaining [B] ([1]; time 485 sec, [B]0 = 250, replicates 1-3): 166.401 and 167.208 and 165.59
remaining [B] ([1]; time 515 sec, [B]0 = 250, replicates 1-3): 165.237 and 165.84 and 164.371
remaining [B] ([1]; time 545 sec, [B]0 = 250, replicates 1-3): 164.02 and 164.7 and 163.322
remaining [B] ([2]; Replicate 1, 723 sec, [B]0 = 250): 243.335
remaining [B] ([2]; Replicate 1, 903 sec, [B]0 = 250): 243.032
remaining [B] ([2]; Replicate 1, 1084 sec, [B]0 = 250): 242.818
remaining [B] ([2]; Replicate 1, 1265 sec, [B]0 = 250): 242.415
remaining [B] ([2]; Replicate 1, 1445 sec, [B]0 = 250): 242.176
remaining [B] ([2]; Replicate 1, 1626 sec, [B]0 = 250): 241.949
remaining [B] ([2]; Replicate 1, 1806 sec, [B]0 = 250): 241.659
remaining [B] ([2]; Replicate 1, 1988 sec, [B]0 = 250): 241.394
remaining [B] ([2]; Replicate 1, 2168 sec, [B]0 = 250): 241.004
remaining [B] ([2]; Replicate 1, 2349 sec, [B]0 = 250): 240.752
remaining [B] ([2]; Replicate 1, 2530 sec, [B]0 = 250): 240.437
remaining [B] ([2]; Replicate 1, 2710 sec, [B]0 = 250): 240.323
remaining [B] ([2]; Replicate 2, 542 sec, [B]0=250): 243.63
remaining [B] ([2]; Replicate 2, 723 sec, [B]0=250): 243.24
remaining [B] ([2]; Replicate 2, 903 sec, [B]0=250): 242.962
remaining [B] ([2]; Replicate 2, 1084 sec, [B]0=250): 242.698
remaining [B] ([2]; Replicate 2, 1265 sec, [B]0=250): 242.446
remaining [B] ([2]; Replicate 2, 1445 sec, [B]0=250): 242.169
remaining [B] ([2]; Replicate 2, 1626 sec, [B]0=250): 241.929
remaining [B] ([2]; Replicate 2, 1806 sec, [B]0=250): 241.639
remaining [B] ([2]; Replicate 2, 1988 sec, [B]0=250): 241.4
remaining [B] ([2]; Replicate 2, 2168 sec, [B]0=250): 241.098
remaining [B] ([2]; Replicate 2, 2349 sec, [B]0=250): 240.858
remaining [B] ([2]; Replicate 2, 2530 sec, [B]0=250): 240.593
remaining [B] ([2]; Replicate 2, 2710 sec, [B]0=250): 240.316
remaining [B] ([2]; Replicate 3, 723 sec, [B]0=250): 242.314
remaining [B] ([2]; Replicate 3, 903 sec, [B]0=250): 241.999
remaining [B] ([2]; Replicate 3, 1084 sec, [B]0=250): 241.659
remaining [B] ([2]; Replicate 3, 1265 sec, [B]0=250): 241.344
remaining [B] ([2]; Replicate 3, 1445 sec, [B]0=250): 241.041
remaining [B] ([2]; Replicate 3, 1626 sec, [B]0=250): 240.789
remaining [B] ([2]; Replicate 3, 1806 sec, [B]0=250): 240.5
remaining [B] ([2]; Replicate 3, 1988 sec, [B]0=250): 240.273
remaining [B] ([2]; Replicate 3, 2168 sec, [B]0=250): 240.008
remaining [B] ([2]; Replicate 3, 2349 sec, [B]0=250): 239.706
remaining [B] ([2]; Replicate 3, 2530 sec, [B]0=250): 239.492
remaining [B] ([2]; Replicate 3, 2710 sec, [B]0=250): 239.164
remaining [B] [2, 3]: 238.912 and 239.97 and 240.014
remaining [B] [2, 4]: 238.673 and 239.655 and 239.774
remaining [B] [2, 5]: 238.37 and 239.391 and 239.522
remaining [B] [2, 6]: 238.118 and 239.164 and 239.207
remaining [B] [2, 7]: 237.79
Compound: COc1cc2sc(C(=O)CCC(=O)O)cc2cc1NC(=O)CCl [Compound E2]
second-order ([1]; Replicate 1, time 576 sec, second-order plot value): 0.009306
second-order ([1]; Replicate 1, time 606 sec, second-order plot value): 0.009623
second-order ([1]; Replicate 2, time 576 sec, second-order plot value): 0.009966
second-order ([1]; Replicate 2, time 606 sec, second-order plot value): 0.01034
second-order ([1]; Replicate 3, time 576 sec, second-order plot value): 0.009352
second-order ([1]; Replicate 3, time 606 sec, second-order plot value): 0.009694
second-order ([1]; time 0 sec, replicates 1-3): 0.001589 and 0.00145 and 0.001561
second-order ([1]; time 30 sec, replicates 1-3): 0.002137 and 0.002004 and 0.001994
second-order ([1]; time 60 sec, replicates 1-3): 0.002738 and 0.002556 and 0.002427
second-order ([1]; time 91 sec, replicates 1-3): 0.003264 and 0.003029 and 0.002869
second-order ([1]; time 121 sec, replicates 1-3): 0.003719 and 0.003488 and 0.003307
second-order ([1]; time 151 sec, replicates 1-3): 0.004215 and 0.003925 and 0.003731
second-order ([1]; time 182 sec, replicates 1-3): 0.004663 and 0.00436 and 0.004145
second-order ([1]; time 212 sec, replicates 1-3): 0.005091 and 0.004762 and 0.004542
second-order ([1]; time 242 sec, replicates 1-3): 0.005539 and 0.005157 and 0.005
second-order ([1]; time 273 sec, replicates 1-3): 0.005981 and 0.005566 and 0.005372
second-order ([1]; time 303 sec, replicates 1-3): 0.00637 and 0.005975 and 0.005807
second-order ([1]; time 333 sec, replicates 1-3): 0.006811 and 0.006357 and 0.006186
second-order ([1]; time 364 sec, replicates 1-3): 0.007233 and 0.006753 and 0.006621
second-order ([1]; time 394 sec, replicates 1-3): 0.007627 and 0.007133 and 0.007019
second-order ([1]; time 424 sec, replicates 1-3): 0.008046 and 0.007509 and 0.00743
second-order ([1]; time 454 sec, replicates 1-3): 0.008415 and 0.007894 and 0.007756
second-order ([1]; time 485 sec, replicates 1-3): 0.008811 and 0.008254 and 0.008111
second-order ([1]; time 515 sec, replicates 1-3): 0.009219 and 0.008598 and 0.00851
second-order ([1]; time 545 sec, replicates 1-3): 0.009596 and 0.008984 and 0.008865
second-order [2, 3]: 0.0004296 and 0.0004811 and 0.0004316
second-order [2, 4]: 0.0004407 and 0.0004923 and 0.0004463
second-order [2, 5]: 0.0004524 and 0.0005067 and 0.0004586
second-order [2, 6]: 0.0004672 and 0.0005187 and 0.0004692
second-order [2, 7]: 0.0004772 and 0.0005343 and 0.0004876
second-order ([2]; Time 3794 sec, [B]0 = 250, Replicates 1-3): 0.0004927 and 0.000547 and 0.0004971
second-order ([2]; Time 3974 sec, [B]0 = 250, Replicates 1-3): 0.0005034 and 0.0005579 and 0.0005103
second-order ([2]; Time 4155 sec, [B]0 = 250, Replicates 1-3): 0.0005154 and 0.0005714 and 0.0005211
second-order ([2]; Time 4336 sec, [B]0 = 250, Replicates 1-3): 0.0005298 and 0.0005836 and 0.0005397
second-order ([2]; Time 4516 sec, [B]0 = 250, Replicates 1-3): 0.0005443 and 0.0005965 and 0.0005531
second-order ([2]; Time 4697 sec, [B]0 = 250, Replicates 1-3): 0.0005528 and 0.0006095 and 0.0005659
second-order ([2]; Time 4878 sec, [B]0 = 250, Replicates 1-3): 0.0005674 and 0.0006188 and 0.0005756
second-order ([2]; Time 5058 sec, [B]0 = 250, Replicates 1-3): 0.0005809 and 0.0006349 and 0.000586
second-order ([2]; Time 5239 sec, [B]0 = 250, Replicates 1-3): 0.0005944 and 0.0006468 and 0.0006002
second-order ([2]; Time 5419 sec, [B]0 = 250, Replicates 1-3): 0.0006061 and 0.0006606 and 0.0006132
second-order ([2]; Time 5600 sec, [B]0 = 250, Replicates 1-3): 0.0006185 and 0.0006707 and 0.0006275
second-order ([2]; Time 5781 sec, [B]0 = 250, Replicates 1-3): 0.0006334 and 0.0006852 and 0.0006393
second-order ([2]; Time 5961 sec, [B]0 = 250, Replicates 1-3): 0.0006459 and 0.0007024 and 0.0006549
